pEC50: −log10 of the molar value.

The target in this test is T1, human RXFP1 (Homo sapiens, UniProt Q9HBX9).
T1 construct: expressed in transfected cells
T1 sequence (Q9HBX9 1-757): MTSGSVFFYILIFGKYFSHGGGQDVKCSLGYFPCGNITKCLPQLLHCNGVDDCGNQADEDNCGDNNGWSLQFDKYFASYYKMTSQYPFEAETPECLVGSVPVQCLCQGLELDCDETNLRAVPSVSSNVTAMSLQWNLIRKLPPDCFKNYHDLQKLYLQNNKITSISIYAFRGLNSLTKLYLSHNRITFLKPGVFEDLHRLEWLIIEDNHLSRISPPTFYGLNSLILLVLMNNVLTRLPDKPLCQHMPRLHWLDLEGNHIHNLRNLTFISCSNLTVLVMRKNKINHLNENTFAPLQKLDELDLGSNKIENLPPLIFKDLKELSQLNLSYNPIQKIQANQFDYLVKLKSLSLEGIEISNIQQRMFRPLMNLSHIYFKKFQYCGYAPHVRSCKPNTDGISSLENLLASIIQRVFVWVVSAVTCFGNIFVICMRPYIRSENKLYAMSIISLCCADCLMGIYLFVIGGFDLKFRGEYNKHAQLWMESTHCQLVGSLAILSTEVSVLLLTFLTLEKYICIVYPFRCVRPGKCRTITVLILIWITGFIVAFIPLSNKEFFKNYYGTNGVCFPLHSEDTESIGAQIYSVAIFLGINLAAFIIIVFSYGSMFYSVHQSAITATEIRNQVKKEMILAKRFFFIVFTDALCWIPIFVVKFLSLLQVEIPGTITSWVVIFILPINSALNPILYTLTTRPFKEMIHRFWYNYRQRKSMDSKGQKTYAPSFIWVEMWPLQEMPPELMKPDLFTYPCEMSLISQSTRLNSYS
As to the kind of experiment: RXFP1 cAMP assay (hRXFP1 HEK293 cAMP assay, HTRF). It counts as cell-based. The settings on record: HEK293 cells stably expressing human RXFP1, 30 min at room temperature, read-out: cAMP hRXFP1 HEK293 Assay EC50. In outline:
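HEK293 cells stably expressing human RXFP1 (1500 cells/well) in HBSS/20 mM HEPES/0.05% BSA/0.5 mM IBMX. Compounds were tested at 0.010 nM–50 μM final (2% DMSO) for 30 min at room temperature. cAMP was measured by HTRF and values derived by 4-parameter logistic fit.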
In general terms: Changes in cAMP serve as a functional read-out for many G protein-coupled receptors.
As a reminder, the pEC50 is −log10 of the EC50, conventionally taken in molar units. As for `COc1ccc(C2=NOC(CC(C)(C)O)C2)cc1C(=O)N[C@H]1[C@@H](C(=O)Nc2ccc(F)c(C(F)(F)F)c2)[C@H]2CC[C@@H]1/C2=C\C1CC1` (single isomer, unassigned) [compound 528], the pEC50 is 7.65.

In the case of `COc1ccc(C2=NOC3COCC23)cc1C(=O)N[C@H]1[C@@H](C(=O)NC2(C(C)C)CC2)[C@H]2CC[C@@H]1/C2=C\C1CC1` (stereo partly drawn) [compound 584], the negative logarithm of the EC50 (pEC50) was 7.11.

For the compound `COc1ccc(-c2ccc(C(=O)O)cc2F)cc1C(=O)N[C@@H]1C2CCC(/C2=C/C(F)(F)F)[C@@H]1C(=O)Nc1ccc(F)c(C(F)(F)F)c1` (stereo partly drawn) [compound 293], the pEC50 is 7.49.

In the case of `COc1ccc(-c2cc([C@H](OC(=O)NC3CCC3)C(F)(F)F)ccc2F)cc1C(=O)N[C@@H]1C2CCC(/C2=C/C2CCCC2)[C@@H]1C(=O)Nc1ccc(F)c(C(F)(F)F)c1` (stereo partly drawn) [compound 922], the pEC50 is 8.66.

As for `COc1ccc(-c2cc([C@H](OC(=O)NC3CCC3)C(=O)O)ccc2F)cc1C(=O)N[C@H]1[C@@H](C(=O)Nc2ccc(F)c(C(F)(F)F)c2)[C@H]2CC[C@@H]1/C2=C\CC(C)C` [compound 937], the negative logarithm of the EC50 (pEC50) was 8.24.

As to `CCC/C=C1\[C@H]2CC[C@@H]1[C@H](C(=O)Nc1ccc(F)c(C(F)(F)F)c1)[C@@H]2NC(=O)c1cc(C2=NOC3CC(CO)CC23)ccc1OC` (stereo partly drawn) [compound 800], the negative-log EC50 (pEC50) is 9.00.

`COc1ccc(C2=NOC(C(C)(C)O)C2)cc1C(=O)N[C@H]1[C@@H](C(=O)Nc2ccc(F)c(C(F)(F)F)c2)[C@H]2CC[C@@H]1/C2=C\C1CC1` (single isomer, unassigned) [compound 524]: the pEC50 was 7.66.

In the case of `COc1ccc(C2=NOC3COCC23)cc1C(=O)N[C@@H]1C2CCC(/C2=C/C2CC2)[C@@H]1C(=O)Nc1ccc(F)c(C(F)(F)F)c1` (stereo partly drawn) [compound 418], the negative logarithm of the EC50 (pEC50) was 6.77.

In the case of `COc1ccc(N2CCCS2(=O)=O)cc1C(=O)N[C@@H]1C2CCC(/C2=C/C2CC2)[C@@H]1C(=O)Nc1ccc(F)c(C(F)(F)F)c1` (stereo partly drawn) [compound 372], the pEC50 was 7.92.

On to `COc1ccc(-c2cc(C(OC(=O)NC3CCC3)C(F)F)ccc2F)cc1C(=O)N[C@H]1[C@@H](C(=O)Nc2ccc(F)c(C(F)(F)F)c2)[C@H]2CC[C@@H]1/C2=C\C1CC1` (single isomer, unassigned) [Example 230], for which the negative-log EC50 (pEC50) is 9.00.

As to `COc1ccc(N2CCCC(CO)C2)cc1C(=O)N[C@@H]1C2CCC(/C2=C/C2CC2)[C@@H]1C(=O)Nc1ccc(F)c(C(F)(F)F)c1` (single isomer, unassigned) [compound 704], the negative-log EC50 (pEC50) is 5.89.

Regarding `COc1ccc(C2CC3CNS(=O)(=O)C32)cc1C(=O)N[C@H]1[C@@H](C(=O)Nc2ccc(F)c(C(F)(F)F)c2)[C@H]2CC[C@@H]1/C2=C\C1CC1` (single isomer, unassigned) [compound 733], the pEC50 was 8.20.

Turning to `COc1ccc(-c2cccnc2F)cc1C(=O)N[C@H]1[C@@H](C(=O)Nc2ccc(F)c(C(F)(F)F)c2)[C@H]2CC[C@@H]1C2=C(C)C` [compound 102], the pEC50 is 6.23.

As to `COc1ccc(-c2cc(C(=O)O)ccc2F)cc1C(=O)N[C@@H]1C2CCC(/C2=C/C2CC2)[C@@H]1C(=O)NCc1ccccc1OC(F)(F)F` (stereo partly drawn) [compound 306], the pEC50 is 6.27.

For the compound `COc1ccc(C2=NOC3COCC23)c(F)c1C(=O)N[C@H]1[C@@H](C(=O)Nc2ccc(F)c(C(F)(F)F)c2)[C@H]2CC[C@@H]1/C2=C\C1CC1` (single isomer, unassigned) [compound 513], the negative-log EC50 (pEC50) was 7.78.

Consider `COc1ccc(C2CCCN2CC(C)(C)O)cc1C(=O)N[C@@H]1C2CCC(C2=CC2CC2)[C@@H]1C(=O)Nc1ccc(F)c(C(F)(F)F)c1` (stereo partly drawn) [compound 607], for which the pEC50 was 6.89.

Turning to `COc1ccc(C2=NOC(CO)C2)cc1C(=O)N[C@H]1[C@@H](C(=O)Nc2ccc(F)c(C(F)(F)F)c2)[C@H]2CC[C@@H]1/C2=C\C1CCC1` (mixture of isomers) [Example 378, (1R,2S,3R,4R,Z)-7-(cyclobutylmethylene)-N-(4-fluoro-3-(trifluoromethyl)phenyl)-3-(5-(5-(hydroxymethyl)-4,5-dihydroisoxazol-3-yl)-2-methoxybenzamido)bicyclo[2.2.1]heptane-2-carboxamide], the pEC50 is 7.80.

As to `COc1cc(F)c(F)cc1C(=O)N[C@@H]1C2CCC(/C2=C/c2ccccc2C#N)[C@@H]1C(=O)Nc1ccc(F)c(C(F)(F)F)c1` (stereo partly drawn) [compound 68], the negative-log EC50 (pEC50) was 5.49.

As for `COc1ccc(C2=NOC3COCC23)cc1C(=O)N[C@H]1[C@@H](C(=O)NC(C2CC2)C2CC2)[C@H]2CC[C@@H]1/C2=C\C1CC1` (stereo partly drawn) [compound 521], the pEC50 was 7.71.

`COc1ccc(-c2cnc(C)nc2)cc1C(=O)N[C@H]1[C@@H](C(=O)Nc2ccc(F)c(C(F)(F)F)c2)[C@H]2CC[C@@H]1C2=C(C)C` [compound 98]: the pEC50 was 6.29.

Regarding `COc1ccc(C2=NOC3CC(C#N)CC23)cc1C(=O)N[C@H]1[C@@H](C(=O)Nc2ccc(F)c(C(F)(F)F)c2)[C@H]2CC[C@@H]1/C2=C\C1CC1` (stereo partly drawn) [compound 506], the pEC50 was 7.90.

Consider `COc1ccc(-c2ccc(CC(=O)O)cc2)cc1C(=O)N[C@@H]1C2CCC(/C2=C/c2cnoc2)[C@@H]1C(=O)Nc1ccc(F)c(C(F)(F)F)c1` (stereo partly drawn) [compound 188], for which the pEC50 is 7.70.

For `COc1c(F)cc(C2=NOC3CC(CO)CC23)cc1C(=O)N[C@H]1[C@@H](C(=O)N[C@H](C)C2(C)CC2)[C@H]2CC[C@@H]1/C2=C\CCC(F)(F)F` (stereo partly drawn) [compound 834], the pEC50 was 8.42.

In the case of `COc1ccc(C2=NO[C@H]3COC[C@@H]23)cc1C(=O)N[C@H]1[C@@H](C(=O)Nc2ccc(F)c(C(F)(F)F)c2)[C@H]2CC[C@@H]1/C2=C\CCC1CC1` [compound 839], the pEC50 was 8.36.

With `COc1c(I)cc(I)cc1C(=O)N[C@@H]1C2CCC(/C2=C/c2ccccc2)[C@@H]1C(=O)Nc1ccc(F)c(C(F)(F)F)c1` (stereo partly drawn) [compound 132], the pEC50 is 6.66.

With `COc1ccc(-c2ccc(F)nc2F)cc1C(=O)N[C@H]1[C@@H](C(=O)Nc2ccc(F)c(C(F)(F)F)c2)[C@H]2CC[C@@H]1C2=C(C)C` [compound 106], the pEC50 was 5.57.

With `COCCNC(=O)c1ccc(-c2ccc(OC)c(C(=O)N[C@@H]3C4CCC(/C4=C/c4ccccc4)[C@@H]3C(=O)Nc3ccc(F)c(C(F)(F)F)c3)c2)c(F)c1` (stereo partly drawn) [compound 197], the negative-log EC50 (pEC50) is 7.29.

With `CNC(=O)OC(c1ccc(F)c(-c2ccc(OC)c(C(=O)N[C@@H]3C4CCC(/C4=C/C4CC4)[C@@H]3C(=O)Nc3ccc(F)c(C(F)(F)F)c3)c2)c1)C(F)(F)F` (stereo partly drawn) [compound 217], the pEC50 was 8.70.

`COc1ccc(C2=NOC3CC(CO)CC23)cc1C(=O)N[C@@H]1C2CCC(/C2=C/C2CC2)[C@@H]1C(=O)Nc1ccc(F)c(C(F)(F)F)c1` (single isomer, unassigned) [compound 432]: the pEC50 is 8.70.

`COc1ccc(C2=NO[C@H]3[C@@H]2CC[C@@H]3O)cc1C(=O)N[C@H]1[C@@H](C(=O)Nc2ccc(F)c(C(F)(F)F)c2)[C@H]2CC[C@@H]1/C2=C\C1CC1` (single isomer, unassigned) [compound 574]: the negative logarithm of the EC50 (pEC50) is 7.17.

Take `COc1ccc(C2=NC[C@@H]3CCCN23)cc1C(=O)N[C@H]1[C@@H](C(=O)Nc2ccc(F)c(C(F)(F)F)c2)[C@H]2CC[C@@H]1/C2=C\C1CC1` [compound 708]: the pEC50 is 5.87.

As for `COc1ccc(-c2cc(C(F)F)ccc2F)cc1C(=O)N[C@@H]1C2CCC(/C2=C/C2CC2)[C@@H]1C(=O)Nc1ccc(F)c(C(F)(F)F)c1` (stereo partly drawn) [compound 280], the negative-log EC50 (pEC50) is 7.92.

As to `COc1cc(F)c(F)cc1C(=O)N[C@@H]1C2CCC(/C2=C/c2ccccc2)[C@]1(F)C(=O)Nc1ccc(F)c(C(F)(F)F)c1` (stereo partly drawn) [Example 53], the negative logarithm of the EC50 (pEC50) is 6.62.

As to `COc1ccc(C2=NOC3CCCC23)cc1C(=O)N[C@@H]1C2CCC(/C2=C/C2CC2)[C@@H]1C(=O)Nc1ccc(F)c(C(F)(F)F)c1` (stereo partly drawn) [compound 440], the pEC50 is 7.60.

With `COc1c(F)cc(C2=NOC3CC(CO)CC23)cc1C(=O)N[C@H]1[C@@H](C(=O)N[C@H](C)C2(C)CC2)[C@H]2CC[C@@H]1/C2=C\C1CC1` (stereo partly drawn) [compound 757], the pEC50 was 9.05.

`CCCC/C=C1\C2CCC1[C@H](C(=O)Nc1ccc(F)c(C(F)(F)F)c1)[C@@H]2NC(=O)c1cc(C2=NOC(CO)C2)ccc1OC` (stereo partly drawn) [compound 383]: the pEC50 was 6.90.

Take `COc1c(F)cc(C2=NOC3CC(CO)CC23)cc1C(=O)N[C@H]1[C@@H](C(=O)N[C@H](C)C2(C)CC2)[C@H]2CC[C@@H]1/C2=C\C1CC(F)(F)C1` (stereo partly drawn) [compound 813]: the pEC50 was 9.00.

As to `COc1ccc(-c2cc(C(=O)NS(C)(=O)=O)ccc2F)cc1C(=O)N[C@@H]1C2CCC(C2=C(C)C)[C@@H]1C(=O)Nc1ccc(F)c(C(F)(F)F)c1` (stereo partly drawn) [compound 131], the pEC50 is 6.89.

For `COc1ccc(C2=NOC(CO)C2)cc1C(=O)N[C@@H]1C2CCC(/C2=C/C2CC2)[C@@H]1C(=O)Nc1ccc(F)c(C(F)(F)F)c1` (stereo partly drawn) [compound 380], the negative logarithm of the EC50 (pEC50) is 7.64.

(Values after patent publication US20250221966A1, “RXFP1 AGONISTS” (BRISTOL-MYERS SQUIBB COMPANY, priority 2021, published 2025).)
